From US10196398B2, “Pesticidally active tetracyclic derivatives with sulfur containing substituents” (Syngenta Participations AG, priority 2014, dated 2019)
Read-outs that look alike come from different tables or passages of the source.

Columns and labels:
Format in all cases: in vivo
Diabrotica balteata = test: Example B1: Diabrotica balteata (corn root worm), sprayed maize sprouts; details: 96 h, read-out: effect in at least one of the two categories (mortality or growth inhibition)
Experimental: Example B1: Diabrotica balteata (Corn Root Worm)
Maize sprouts placed onto an agar layer in 24-well microtiter plates were treated with aqueous test solutions prepared from 10′000 ppm DMSO stock solutions by spraying. After drying, the plates were infested with L2 larvae (6 to 10 per well). The samples were assessed for mortality and growth inhibition in comparison to untreated samples 4 days after infestation.

Euschistus heros = test: Example B2: Euschistus heros (neotropical brown stink bug), sprayed soybean leaves; details: 120 h, read-out: effect in at least one of the two categories (mortality or growth inhibition)
Experimental: Example B2: Euschistus heros(Neotropical Brown Stink Bug)
Soybean leaves on agar in 24-well microtiter plates were sprayed with aqueous test solutions prepared from 10′000 ppm DMSO stock solutions. After drying the leaves were infested with N2 nymphs. The samples were assessed for mortality and growth inhibition in comparison to untreated samples 5 days after infestation.

Myzus persicae [1] = test: Example B3: Myzus persicae (green peach aphid), feeding/contact activity; details: 144 h
Experimental: Example B3: Myzus persicae (Green Peach Aphid):Feeding/Contact Activity
Sunflower leaf discs were placed onto agar in a 24-well microtiter plate and sprayed with aqueous test solutions prepared from 10′000 ppm DMSO stock solutions. After drying, the leaf discs were infested with an aphid population of mixed ages. The samples were assessed for mortality 6 days after infestation.

Plutella xylostella = test: Example B5: Plutella xylostella (diamond back moth), artificial diet; details: 120 h, read-out: effect in at least one of the two categories (mortality or growth inhibition)
Experimental: Example B5: Plutella xylostella (Diamond Back Moth)
24-well microtiter plates with artificial diet were treated with aqueous test solutions prepared from 10′000 ppm DMSO stock solutions by pipetting. After drying, the plates were infested with L2 larvae (10 to 15 per well). The samples were assessed for mortality and growth inhibition in comparison to untreated samples 5 days after infestation.

Spodoptera littoralis [2] = test: whole plant or invertebrate; details: foliar, 72 h, read-out: control (mortality, anti-feeding effect, or growth inhibition)
Experimental: (§1) Example B6: Spodoptera littoralis (Egyptian Cotton Leaf Worm)
Cotton leaf discs were placed onto agar in 24-well microtiter plates and sprayed with aqueous test solutions prepared from 10′000 ppm DMSO stock solutions. After drying the leaf discs were infested with five L1 larvae. The samples were assessed for mortality, anti-feeding effect, and growth inhibition in comparison to untreated samples 3 days after infestation. Control of Spodoptera littoralis by a test sample is given when at least one of the categories mortality, anti-feedant effect, and growth inhibition is higher than the untreated sample.

Spodoptera littoralis [3] = test: whole plant or invertebrate; details: in Gossypium barbadense, 144 h, read-out: effect in at least one of the three categories (mortality, anti-feeding, or growth inhibition)
From the text: as §1
Test compounds were applied by pipette from 10′000 ppm DMSO stock solutions into 24-well plates and mixed with agar. Lettuce seeds were placed onto the agar and the multi well plate was closed by another plate which contained also agar. After 7 days the compound was absorbed by the roots and the lettuce grew into the lid plate. The lettuce leaves were then cut off into the lid plate. Spodoptera eggs were pipetted through a plastic stencil onto a humid gel blotting paper and the lid plate was closed with it. The samples were assessed for mortality, anti-feedant effect and growth inhibition in comparison to untreated samples 6 days after infestation.

Myzus persicae [4] = test: Example B4: Myzus persicae (green peach aphid), systemic activity; details: 144 h, test rate of 24 ppm, roots of pea seedlings in test solution, 6 days
Experimental: Example B4: Myzus persicae (Green Peach Aphid). Systemic Activity
Roots of pea seedlings infested with an aphid population of mixed ages were placed directly into aqueous test solutions prepared from 10′000 DMSO stock solutions. The samples were assessed for mortality 6 days after placing seedlings into test solutions.

[5] = system: Frankliniella occidentalis; test: Example B7: Frankliniella occidentalis (western flower thrips), feeding/contact activity; details: 168 h, application rate of 200 ppm, population of mixed ages, 7 days after infestation
Experimental: Example B7: Frankliniella occidentalis (Western Flower Thrips):Feeding/Contact Activity
(§2) Sunflower leaf discs were placed on agar in 24-well microtiter plates and sprayed with aqueous test solutions prepared from 10′000 DMSO stock solutions. After drying the leaf discs were infested with a Frankliniella population of mixed ages. The samples were assessed for mortality 7 days after infestation.

Thrips tabaci = test: Example B8: Thrips tabaci (onion thrips), feeding/contact activity; details: 144 h, application rate of 200 ppm, population of mixed ages, 6 days after infestation
Experimental: Example B8: Thrips tabaci (Onion Thrips) Feeding/Contact Activity
as §2, with “10′000 ppm” for “10′000”, “thrips” for “Frankliniella”, “6” for “7”

CCS(=O)(=O)c1cc2ccccc2nc1-c1cn2cnc(C(F)(F)F)cc2n1 [Compound P1, 3-ethylsulfonyl-2-[7-(trifluoromethyl)imidazo[1,2-c]pyrimidin-2-yl]quinolone]
≥ 80%: percent control (mortality or growth inhibition) at 200 ppm (Diabrotica balteata) | percent control (mortality or growth inhibition) at 200 ppm (Euschistus heros) | mortality at 200 ppm (Myzus persicae [1]) | percent control (mortality or growth inhibition) at 200 ppm (Plutella xylostella) | percent control (mortality, anti-feedant effect or growth inhibition) at 200 ppm (Spodoptera littoralis [2]) | percent control (mortality, anti-feedant effect or growth inhibition) at 12.5 ppm (Spodoptera littoralis [3])

CCS(=O)(=O)c1cc2c(cc1-c1cn3cnc(C(F)(F)F)cc3n1)nc(C(F)(F)F)n2C [Compound P2, 2-[6-ethylsulfonyl-1-methyl-2-(trifluoromethyl)benzimidazol-5-yl]-7-(trifluoromethyl)imidazo[1,2-c]pyrimidine]
≥ 80%: percent effect (mortality or growth inhibition) at 200 ppm (Diabrotica balteata; application rate of 200 ppm, L2 larvae, 4 days after infestation) | percent effect (mortality or growth inhibition) at 200 ppm (Euschistus heros; application rate of 200 ppm, N2 nymphs, 5 days after infestation) | mortality at 200 ppm (Myzus persicae [1]; application rate of 200 ppm, aphid population of mixed ages, 6 days after infestation, read-out: mortality) | mortality at 24 ppm (Myzus persicae [4]) | percent effect (mortality or growth inhibition) at 200 ppm (Plutella xylostella; application rate of 200 ppm, L2 larvae, 5 days after infestation) | mortality at 200 ppm [5] | mortality at 200 ppm (Thrips tabaci)
